The values below come from patent publication US6566073B1, “Materials and methods involving conditional retention domains” (Ariad Gene Therapeutics, Inc., priority 1998, dated 2003).

SMILES strings stand for the structures.

In test [1] the target is T1, F(36M)4-hIn-m3 fusion protein in HT1080 cells (Homo sapiens, UniProt P01308+P62942, F37M/H34D/K53R/L86R/R55K).
T1 construct: fusion of F(36M) domains to insulin results in a suppression of its secretion; expressed in transfected cells; host or cells: HT1080 cells, transient transfection
T1 sequence (P62942+P01308 fused P62942:F37M/P01308:H34D/P01308:K53R/P01308:R55K/P01308:L86R): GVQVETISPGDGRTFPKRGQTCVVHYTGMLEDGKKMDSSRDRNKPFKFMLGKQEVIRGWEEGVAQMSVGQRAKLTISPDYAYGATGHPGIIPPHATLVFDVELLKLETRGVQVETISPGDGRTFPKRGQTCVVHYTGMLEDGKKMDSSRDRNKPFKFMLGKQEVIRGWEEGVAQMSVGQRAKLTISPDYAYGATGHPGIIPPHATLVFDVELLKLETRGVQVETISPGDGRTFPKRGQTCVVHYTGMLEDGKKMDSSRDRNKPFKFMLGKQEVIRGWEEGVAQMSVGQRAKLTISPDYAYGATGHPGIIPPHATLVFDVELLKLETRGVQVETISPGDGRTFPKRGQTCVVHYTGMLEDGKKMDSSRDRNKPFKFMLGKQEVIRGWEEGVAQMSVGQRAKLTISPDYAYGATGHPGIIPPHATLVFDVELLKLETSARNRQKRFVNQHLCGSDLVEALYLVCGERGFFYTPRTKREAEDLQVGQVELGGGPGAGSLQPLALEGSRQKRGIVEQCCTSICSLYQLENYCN
The experiment in a line: Regulated insulin secretion from transiently transfected HT1080 cells (C-peptide ELISA). Conditions: increasing concentrations of ligand, 3 hours, FIG. 8. Type of test: cell-based. As for the experimental part: A vector driving expression of this F(36M)-insulin fusion protein (F(36M)4-hIn-m3) was transiently transfected into HT1080 cells. For comparison, vectors driving the expression of insulin protein alone, with (hIn-m3) or without (hIn-wt) the three mutations were also transfected. Following overnight incubation of cells in the absence of ligand, the medium was washed away and fresh medium added, without or with increasing concentrations of the monomeric ligand, AP21998. Three hours later, the amount of insulin secreted into the medium was determined by ELISA using an assay that recognizes an epitope within the C-peptide (ALPCO).
(An ELISA detects its analyte on a solid surface through an enzyme-linked reagent.)

For another test, the target named is wild-type FKBP (Homo sapiens, UniProt P62942). The experiment in a line: Binding of bumped FKBP ligands to wild-type FKBP. The text has this:
(§1) AP21998 and AP22542 are ligands of FKBP that have particular utility for CAD applications, because they bind with high affinity to F36M-FKBP but poorly to the wild-type protein, and are thus anticipated to lead to minimal interactions with the endogenous proteins during in vivo applications. The design and assay of such “bumped” ligands that target a hole created by truncating FKBP residue Phe36 have been described (Clackson et al., Proc. Natl. Acad. Sci. USA 95:10437-10442, 1998).

The target in the next test is F36M-FKBP (Homo sapiens, UniProt P62942, F37M). The experiment in a line: Binding of bumped FKBP ligands to F36M-FKBP.
Sequence of F36M-FKBP (P62942 whole entry F37M): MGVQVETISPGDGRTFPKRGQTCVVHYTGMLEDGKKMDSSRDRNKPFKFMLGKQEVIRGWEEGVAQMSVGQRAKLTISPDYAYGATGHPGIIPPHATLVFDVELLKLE
Source text: as §1

The target of test [2] is T2, F(36M)-hGH fusion protein in HT88 cells (stably transfected HT1080) (Homo sapiens, UniProt P01241+P62942, F37M).
T2 construct: 4 copies of the F(36M) domain; expressed in transfected cells; host or cells: HT1080 human fibrosarcoma cells, stably transfected pool HT88
T2 sequence (P62942+P01241 fused P62942:F37M): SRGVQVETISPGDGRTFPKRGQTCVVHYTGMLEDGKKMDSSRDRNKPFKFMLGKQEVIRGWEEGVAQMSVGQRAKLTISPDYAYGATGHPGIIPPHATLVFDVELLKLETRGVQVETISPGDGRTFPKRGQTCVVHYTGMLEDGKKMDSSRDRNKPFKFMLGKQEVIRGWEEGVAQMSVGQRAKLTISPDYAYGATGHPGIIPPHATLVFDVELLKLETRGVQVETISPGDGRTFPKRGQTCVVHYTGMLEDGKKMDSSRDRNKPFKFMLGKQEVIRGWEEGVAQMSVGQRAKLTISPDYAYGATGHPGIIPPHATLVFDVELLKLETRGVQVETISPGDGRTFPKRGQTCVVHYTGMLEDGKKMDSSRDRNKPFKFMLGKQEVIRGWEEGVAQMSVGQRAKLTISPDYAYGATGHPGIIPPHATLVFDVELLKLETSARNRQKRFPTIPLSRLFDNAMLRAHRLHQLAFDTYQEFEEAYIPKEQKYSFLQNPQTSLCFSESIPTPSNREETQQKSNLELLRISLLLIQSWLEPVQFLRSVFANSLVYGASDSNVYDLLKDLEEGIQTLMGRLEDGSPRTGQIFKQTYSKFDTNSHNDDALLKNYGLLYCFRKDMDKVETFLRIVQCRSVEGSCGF
The experiment in a line: Ligand-dependent hGH secretion from HT88 cells (radioimmunoassay). In kind it is cell-based. Conditions: FIG. 5A. As for the experimental part:
A vector driving the expression of this fusion protein, under control of the strong constitutive enhancer from CMV, was transiently transfected into HT1080 cells, a human fibrosarcoma cell line. Following overnight incubation of cells in the absence of ligand, the medium was washed away and fresh medium added, with or without ligand. Two hours later, the amount of hGH secreted into the medium was determined by radioimmunoassay. […] In contrast, in the presence of ligand, the amount of hGH secreted was several hundred-fold greater.
Pools of clones stably transfected with the F(36M)-hGH fusion protein (HT88 pool) were analyzed as described for the transiently transfected cells. […] To determine the constitutive rate of hGH secretion, the amount of hGH secreted in the presence of ligand was measured from cells that had already been exposed to ligand for 15 hours. As shown in lane 3, the constitutive rate of secretion from the HT88 cell line was very similar to the rate of secretion from the HT89 cell line which had been stably transfected with the wild type hGH protein (lane 4). Thus, in the presence of ligand the F(36M) domains have no detectable “retention” activity. […] This steady state level of stored F(36M)-hGH fusion protein can persist for months in the cell line with no apparent toxic effect. […]

Test [3] has as its target T3, F(36M)4-hIn-m3 fusion protein in implanted HT101-10p cells (Homo sapiens, UniProt P01308+P62942, F37M/H34D/K53R/L86R/R55K).
T3 construct: fusion of F(36M) domains to insulin results in a suppression of its secretion; expressed in transfected cells; host or cells: HT101-10p cells (HT1080 stably transfected), implanted intramuscularly into male nu/nu mice
The experiment in a line: Regulated insulin secretion in vivo: serum insulin and glucose in STZ-treated mice implanted with HT101-10p cells. More on the design: species or system male nu/nu mice. As for the experimental part: To test whether this system could be used to regulate secretion of insulin in vivo and effect changes in serum glucose levels, 2×10e7 HT101-10p cells were implanted intramuscularly into male nu/nu mice. HT101-10p cells were generated by stably transfecting HT1080 cells with a vector that drives expression of the F(36M)4-hIn-m3 fusion protein. Mice were made hyperglycemic by treatment 2 days earlier with 300 mg/kg streptozotocin (STZ). […] Approximately 1 hr after cells are implanted, animal received vehicle or the indicated dose of intravenous AP22542 (an analog of AP21998). Two hours later, serum samples were collected and assayed for insulin (Ultrasensitive human insulin-specific RIA, Linco) and glucose (Sigma) concentrations. […] In contrast, in animals treated with 10 mg/kg AP22542, serum insulin levels increase to ˜200 pM and serum glucose levels decline to ˜75 mg/dl.
To examine the kinetics of this ligand-induced reduction in serum glucose, STZ-treated mice implanted with 2×10e7 HT101-10p cells were administered a single dose of 30 mg/kg AP22542 intravenously. Serum glucose levels were measured at various times between 5 minutes and 10 hours later. […] This effect is transient as serum glucose levels rise to 350 mg/dl within 5 hours and return to baseline between 6 and 10 hours later. Since insulin secretion is dependent on the presence of the drug, administration of lower doses of AP22542 or of a ligand with a shorter half life should result in an even more transient production of secreted protein and resulting physiological effect. Conversely, administration of higher doses of AP22542 or of a ligand with a longer half life should result in a more prolonged production of secreted protein.

The mark [4] stands for this setting: 1 mg/kg intravenous, 2 hours after dose, hyperglycemic mice.

T3 sequence (P62942+P01308 fused P62942:F37M/P01308:H34D/P01308:K53R/P01308:R55K/P01308:L86R): as the sequence (P62942+P01308 fused P62942:F37M/P01308:H34D/P01308:K53R/P01308:R55K/P01308:L86R) above
Sequence of wild-type FKBP (P62942 whole entry, the tested form may be a part): as the sequence (P62942 whole entry F37M) above, with M37F counted along it

For `CC[C@H](C(=O)N1CCCCC1C(=O)O[C@H](CCc1ccc(OC)c(OC)c1)c1cccc(OCC(=O)NCCCN(C)C)c1)c1cc(OC)c(OC)c(OC)c1` (stereo partly drawn) [AP21998], in test [1], the “insulin secretion into medium” value is recorded as “secretion is induced in the presence of monomer in a dose-dependent manner”. Moreover, the “binding to the wild-type protein” value at wild-type FKBP is “poorly”. Moreover, on F36M-FKBP, the “binding to F36M-FKBP” value is recorded as “high affinity”. Also, the “concentration giving peak level of hGH secretion” value in test [2] was in the range of 2 to 3 µM. In test [2] (read-out: half-maximal secretion of hGH), the EC50 was 600 nM.

`CC[C@H](C(=O)N1CCCC[C@H]1C(=O)O[C@H](CCc1ccc(OC)c(OC)c1)c1cccnc1)c1cc(OC)c(OC)c(OC)c1` [AP22542, 1-[2(S)-(3,4,5-trimethoxyphenyl)-butyryl]-piperdine-2(S)-carboxylic acid, 3-(3,4-Dimethoxyphenyl)-1-pyridin-3-yl-propan-1(R)-ol ester]: the serum glucose entry in test [3] (setting [4]) is reported as “no change in serum glucose”; in test [3] (30 mg/kg intravenous single dose, within 30 minutes), “significant reduction in serum glucose”. The serum insulin levels entry in test [3] (setting [4]) is listed as “fails to increase serum insulin levels above the lower limit of detection”; in test [3] (10 mg/kg intravenous, 2 hours after dose), around 200 pM. The serum glucose levels in test [3] (10 mg/kg intravenous, 2 hours after dose, STZ baseline ~350 mg/dl) was around 75 mg/dL; in test [3] (30 mg/kg intravenous single dose, 5 and 15 minutes after administration), “indistinguishable from animals treated with vehicle”; in test [3] (30 mg/kg intravenous single dose, by two hours, initial levels nearly 500 mg/dl) it was 50 mg/dL; in test [3] (30 mg/kg intravenous single dose, within 5 hours), 350 mg/dL. Also, on wild-type FKBP, the “binding to the wild-type protein” value is on record as “poorly”. Besides, the “binding to F36M-FKBP” value at F36M-FKBP is on record as “high affinity”.
